For 18 molecules, IC50 results are on record in patent publication US20240287063A1, “METHIONINE ADENOSYLTRANSFERASE 2A INHIBITOR” (NANJING CHIA TAI TIANQING PHARMACEUTICAL CO., LTD., priority 2021, published 2024).

Structures can show the parent of a compound that is named as a salt. Bounds are passed on as bounds.

For one experiment, the target named is T1, MAT2A enzyme (Homo sapiens, UniProt P31153).
T1 construct: purchased BPS 71401
The experiment can be described thus: Enzymatic testing method for MAT2A (Biomol Green, OD620). Type of experiment: biochemical. The following applies: score by IC50 for inhibiting MAT2A; read-out: MAT2A inhibition score. The method, then:
• a) A 5×MAT2A test buffer (250 mM Tris-HCl, pH 8.0; 250 mM KCl; 75 mM MgCl2; 0.025% BSA; 0.05% Brij35; 1.5 mM EDTA) was first prepared and partially diluted to 1× for later use; • b) Preparation and addition of MAT2A enzyme (BPS, 71401): the MAT2A enzyme was prepared into 3.674 ng/L by using the 1×MAT2A test buffer (1.67×, final concentration 2.20 ng/L), a BioTek (MultiFlo FX) automatic liquid separator was used, 15 μL of 1.67×MAT2A enzyme solution was added to compound test wells and negative control wells respectively, and 15 μL of 1×MAT2A test buffer was added to blank control wells; • c) Preparation and addition of a compound: a compound to be tested was diluted with DMSO from 10 mM stock solution to 100 μM, a positive drug AGI-24512 was diluted under the same conditions, and the diluted compound and positive drug were automatically sprayed into each well by using a Tecan compound titrator (D300e) according to preset concentration gradients, where the spray volume was little and negligible. The concentration gradient was initially 1 μM, the dilution was implemented by ½ log, and a total of 8 gradients were set. Centrifugation at 2500 rpm for 30 s and incubation at 25° C. for 30 min were performed; • d) Preparation of ATP: 10 mM ATP (Sigma, A7699) was diluted with 1×MAT2A test buffer to 700 μM for later use; • e) Preparation and addition of a substrate and ATP mixture: 5×MAT2A test buffer, 3 μL/well; 750 μM L-methionine (Adamas, 01100469), 2.5 μL/well; 700 μM ATP, 2.5 μL/well; and double distilled water, 2 μL/well. A total amount of required mixture was prepared according to the number of test wells, and 10 μL of the mixture was added to each well by using the BioTek (MultiFlo FX) automatic liquid separator, followed by centrifugation at 2500 rpm for 30 s and reaction at 25° C. for 150 min; • f) Addition of Biomol Green detection reagent: 50 μL of Biomol Green (Enzo, BML-AK111) was added to each well by using the BioTek (MultiFlo FX) automatic liquid separator, followed by centrifugation at 2500 rpm for 30 s and incubation at 25° C. for 20 minutes; • g) After the reaction, OD620 values were read by using a Perkin Elmer (Envision 2105) multifunctional plate reader.
A formula for calculating an inhibition rate was as follows: […]
Wherein, • % Inhibition: inhibition rate % • ODsample: OD620 value in a sample well; • ODmin: representing a mean OD620 value of blank control wells without the enzyme or compound to be tested; • ODmax: representing a mean OD620 value of negative control wells with the enzyme and without the compound.
Then a dose-effect curve log(inhibitor) vs. response-Variable slope was fitted by usingGraphPad Prism 5 software to obtain an IC50 value of compound for MAT2A enzyme inhibition.

In another experiment the test system is HCT116 MTAP −/− cells. The experiment can be described thus: Cell testing method: HCT116 MTAP-/- cell proliferation inhibition (CellTiter-Glo, 120 h). The following applies: Homo sapiens, HCT-116; score by IC50 for inhibiting HCT116 MTAP−/− cells. The format is cell-based. How it is done: HCT116 MTAP −/− cells (purchased from Horizon Discovery): human colorectal cancer cell lines with MTAP gene deletion were cultured in medium RPMI 1640+10% FBS (Fetal bovine serum). On day 0 of the experiment, the live cell density of the foregoing cells in logarithmic growth phase was adjusted to 5000 cells/ml, the cells were inoculated to a 96-well plate by an amount of 100 μl/well, and a blank group was set in parallel; and the inoculated cell plate was put into a 37° C., 5% CO2 incubator for overnight culture.
On day 1 of the experiment, the overnight cultured cell plate was taken out, the supernatant was discarded, 80 μl of serum-free RPMI 1640 medium was added to each well, and place the cells in an incubator for starvation cultivation for 4 h. The compound to be tested was dissolved in DMSO (dimethyl sulfoxide) to prepare a 10 mM compound stock solution. After starvation, the cell plate was taken out, and 80 μl of RPMI 1640+20% FBS medium was added to each well; the cell plate was placed on an automatic liquid dispenser D300e (Tecan), and a dosing program was set as follows: a maximum concentration of the compound to be tested was 30 μM, the compound was diluted with DMSO by a 3 times concentration gradient, there was a total of 10 concentrations, two duplicate wells were set for each concentration, and the DMSO final concentration in each well of the 96-well plate was 0.3%, v/v. The pre-prepared 10 mM stock solution of the compound to be tested was taken out, and the above dosing program was run for dosing. After the dosing was completed, the cell plate was placed in incubator and culture for 120 h.
On day 6 of the experiment, the cell plate was taken out, 50 μl of CellTiter-Go® (purchased from Promega) was added to each well, and fluorescence signal was measured on Envision (PerkinElmer) according to operation procedures in the manual.
A dose-effect curve: log(inhibitor) vs. response-Variable slope was fitted by using GraphPad Prism 5 software to obtain an IC50 value of the compound for inhibiting cell proliferation inhibition. A formula for calculating an inhibition rate was: […]
Wherein, • Signal value of tested compound: mean fluorescence signal of cells group+medium group+compound group; • Signal value of blank group: mean fluorescence signal of medium group; • Signal value of negative control group: mean fluorescence signal of cells group+medium group.
On the technique in general: Cellular ATP, detected with luciferase, serves as a proxy for viable cell number.

T1 sequence (P31153 whole entry): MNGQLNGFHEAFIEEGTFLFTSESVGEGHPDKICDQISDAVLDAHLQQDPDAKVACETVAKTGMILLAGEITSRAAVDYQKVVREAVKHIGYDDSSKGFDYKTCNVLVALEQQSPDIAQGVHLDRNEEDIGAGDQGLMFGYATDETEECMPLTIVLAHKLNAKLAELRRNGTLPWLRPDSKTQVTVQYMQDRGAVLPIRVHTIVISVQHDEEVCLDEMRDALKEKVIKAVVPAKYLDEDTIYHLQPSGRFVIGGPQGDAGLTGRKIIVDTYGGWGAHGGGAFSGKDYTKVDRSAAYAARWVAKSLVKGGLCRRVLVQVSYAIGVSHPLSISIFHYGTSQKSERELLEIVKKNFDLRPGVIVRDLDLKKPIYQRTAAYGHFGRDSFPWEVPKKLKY

In the case of `O=c1c(-c2ccc(OC(F)F)cc2)cn2ccc(C3CC3)cc2c1-c1ccc(OC(F)F)cc1` [Example 3, 8-cyclopropyl-1,3-bis(4-(difluoromethoxy)phenyl)-2H-quinolizin-2-one], the IC50 at MAT2A enzyme is less than 50 nM; with HCT116 MTAP −/− cells it was less than 150 nM.

For the molecule `CCOc1ccn2cc(-c3ccc(OC(F)F)cc3)c(=O)c(-c3ccc(OC(F)F)cc3)c2c1` [Example 4], the IC50 is less than 50 nM on MAT2A enzyme and less than 150 nM in the experiment on HCT116 MTAP −/− cells.

For the molecule `Cn1nc2ccc(-c3cn4ccc(C5CC5)cc4c(-c4ccc5c(c4)OC(F)(F)O5)c3=O)cc2c1N` [Example 6, 3-(3-amino-2-methyl-2H-indazol-5-yl)-8-cyclopropyl-1-(2,2-difluoro-1,3-benzodioxol-5-yl) quinolizin-2-one hydrochloride], the figures for the IC50 at MAT2A enzyme and in the experiment on HCT116 MTAP −/− cells were less than 50 nM and 150 to 400 nM, respectively.

Turning to `Cn1nccc1-c1c2cc(-c3cn4ccc(C5CC5)cc4c(-c4ccc5c(c4)OC(F)(F)O5)c3=O)ccc2nn1C` [Example 7, 8-cyclopropyl-1-(2,2-difluoro-1,3-benzodioxol-5-yl)-3-[2-methyl-3-(2-methylpyrazol-3-yl)indazol-5-yl]quinolizin-2-one], the IC50 on MAT2A enzyme is less than 50 nM; with HCT116 MTAP −/− cells, 400 to 1000 nM.

On to `Cn1cc2cc(-c3cn4ccc(NCC(F)(F)F)nc4c(-c4ccc(OC(F)F)cc4)c3=O)ccc2n1` [Example 9, 9-[4-(difluoromethoxy)phenyl]-7-(2-methyl-2H-indazol-5-yl)-2-[(2,2,2-trifluoroethyl)amino]-8H-pyrido[1,2-a]pyrimidin-8-one], for which the IC50 on MAT2A enzyme is less than 50 nM; in the experiment on HCT116 MTAP −/− cells, less than 150 nM.

For the molecule `O=c1c(-c2ccc(OC(F)F)cc2)cn2ccc(NCC(F)(F)F)nc2c1-c1ccc(OC(F)F)cc1` [Example 10, 7,9-bis[4-(difluoromethoxy)phenyl]-2-[(2,2,2-trifluoroethyl)amino]-8H-pyrido[1,2-a]pyrimidin-8-one], the IC50 was less than 50 nM on MAT2A enzyme and less than 150 nM with HCT116 MTAP −/− cells.

As to `COc1ccc(-c2cn3ccc(NCC(F)(F)F)nc3c(-c3ccc(OC)cc3)c2=O)cc1` [Example 11, 7,9-bis[(4-methoxyphenyl)]-2-[(2,2,2-trifluoroethyl)amino]-8H-pyrido[1,2-a]pyrimidin-8-one], the IC50 at MAT2A enzyme is less than 50 nM; with HCT116 MTAP −/− cells, less than 150 nM.

Regarding `Cn1cc2cc(-c3cn4ccc(NCC(F)(F)F)nc4c(-c4ccc5nn(C)cc5c4)c3=O)ccc2n1` [Example 12, 7,9-bis[(2-methyl-2H-indazol-5-yl)]-2-[(2,2,2-trifluoroethyl)amino]-8H-pyrido[1,2-a]pyrimidin-8-one], the values for the IC50 at MAT2A enzyme and in the experiment on HCT116 MTAP −/− cells were less than 50 nM and greater than 1000 nM, respectively.

In the case of `CN1C(=O)c2c3cc(-c4cn5ccc(NCC(F)(F)F)nc5c(-c5ccc(OC(F)F)cc5)c4=O)ccc3nn2CC12CC2` [Example 15, 9′-{9-[4-(difluoromethoxy)phenyl]-8-oxo-2-[(2,2,2-trifluoroethyl)amino]pyrido[1,2-a]pyrimidin-7-yl}-2′-methyl-4′H-spiro[cyclopropane-1,3′-pyrazino[1,2-b]indazol]-1′-one], the IC50 on MAT2A enzyme is less than 50 nM; in the experiment with HCT116 MTAP −/− cells, 400 to 1000 nM.

Consider `O=C1Cn2nc3ccc(-c4cn5ccc(NCC(F)(F)F)nc5c(-c5ccc(OC(F)F)cc5)c4=O)cc3c2C2(CC2)N1` [Example 16, 9′-{9-[4-(difluoromethoxy)phenyl]-8-oxo-2-[(2,2,2-trifluoroethyl)amino]pyrido[1,2-a]pyrimidin-7-yl}-2′,4′-dihydrospiro[cyclopropane-1,1′-pyrazino[1,2-b]indazol]-3′-one], for which the IC50 is less than 50 nM at MAT2A enzyme and 400 to 1000 nM in the experiment with HCT116 MTAP −/− cells.

For the molecule `Cn1cc2cc(-c3cn4ccc(NCC(F)(F)F)nc4c(-c4ccc5c(c4)OC(F)(F)O5)c3=O)ccc2n1` [Example 20, 9-(2,2-difluoro-1,3-benzodioxol-5-yl)-7-(2-methyl-2H-indazol-5-yl)-2-[(2,2,2-trifluoroethyl)amino]-8H-pyrido[1,2-a]pyrimidin-8-one], the IC50 was less than 50 nM on MAT2A enzyme and less than 150 nM in the experiment with HCT116 MTAP −/− cells.

Turning to `O=c1c(-c2ccc(OC(F)F)cc2)cn2ccc(OCC(F)(F)F)nc2c1-c1ccc(OC(F)F)cc1` [Example 24, 7,9-bis[4-(difluoromethoxy)phenyl]-2-(2,2,2-trifluoroethoxy)-8H-pyrido[1,2-a]pyrimidin-8-one], the IC50 at MAT2A enzyme was less than 50 nM; with HCT116 MTAP −/− cells, less than 150 nM.

Consider `Cn1cc2cc(-c3cn4ccc(C5CC5)nc4c(-c4ccc5c(c4)OC(F)(F)O5)c3=O)ccc2n1` [Example 26, 2-cyclopropyl-9-(2,2-difluoro-1,3-benzodioxol-5-yl)-7-(2-methyl-2H-indazol-5-yl)-8H-pyrido[1,2-a]pyrimidin-8-one], for which the figures for the IC50 at MAT2A enzyme and in the experiment on HCT116 MTAP −/− cells were less than 50 nM and less than 150 nM, respectively.

In the case of `O=c1c(-c2ccc(OC(F)F)cc2)cn2ccc(C3CC3)nc2c1-c1ccc2c(c1)OC(F)(F)O2` [Example 27, 2-cyclopropyl-9-(2,2-difluoro-1,3-benzodioxol-5-yl)-7-[4-(difluoromethoxy)phenyl]-8H-pyrido[1,2-a]pyrimidin-8-one], the IC50 at MAT2A enzyme is 50 to 200 nM; in the experiment with HCT116 MTAP −/− cells it was greater than 1000 nM.

As for `O=c1c(-c2ccc3c(c2)OCO3)cn2ccc(C3CC3)nc2c1-c1ccc2c(c1)OCO2` [Example 28, 7,9-bis(2H-1,3-benzodioxol-5-yl)-2-cyclopropyl-8H-pyrido[1,2-a]pyrimidin-8-one], the IC50 at MAT2A enzyme was less than 50 nM; with HCT116 MTAP −/− cells, less than 150 nM.

Consider `O=c1c(-c2ccc3c(c2)OCO3)cn2ccc(C3CC3)nc2c1-c1ccc2c(c1)OC(F)(F)O2` [Example 32, 7-(2H-1,3-benzodioxol-5-yl)-2-cyclopropyl-9-(2,2-difluoro-1,3-benzodioxol-5-yl)pyrido[1,2-a]pyrimidin-8-one], for which the IC50 at MAT2A enzyme is less than 50 nM; in the experiment on HCT116 MTAP −/− cells, less than 150 nM.

Turning to `CN1Cc2c3cc(-c4cn5ccc(C6CC6)nc5c(-c5ccc(OC(F)F)cc5)c4=O)ccc3nn2CC12CC2` [Example 38, 2-cyclopropyl-9-(4-(difluoromethoxy)phenyl)-7-(2′-methyl-1′,2′-dihydro-4′H-spiro[cyclopropane-1,3′-pyrazino[1,2-b]indazol]-9′-yl)-8H-pyrido[1,2-a]pyrimidin-8-one], the IC50 on MAT2A enzyme is less than 50 nM; in the experiment with HCT116 MTAP −/− cells, less than 150 nM.

In the case of `O=c1c(-c2ccc3nn4c(c3c2)CNC2(CC2)C4)cn2ccc(C3CC3)nc2c1-c1ccc(OC(F)F)cc1` [Example 39, 2-cyclopropyl-9-(4-(difluoromethoxy)phenyl)-7-(1′,2′-dihydro-4′H-spiro[cyclopropane-1,3′-pyrazino[1,2-b]indazol]-9′-yl)-8H-pyrido[1,2-a]pyrimidin-8-one], the IC50 at MAT2A enzyme is less than 50 nM; in the experiment on HCT116 MTAP −/− cells, less than 150 nM.
